Assay results taken from PMC4599563 (ACS Medicinal Chemistry Letters, 2015).

Target: mouse SR-BI (Mus musculus, UniProt Q61009)
Assay: [3H]cholesteryl ester uptake assay
Type: cell-based

mouse SR-BI, sequence (Q61009 whole entry): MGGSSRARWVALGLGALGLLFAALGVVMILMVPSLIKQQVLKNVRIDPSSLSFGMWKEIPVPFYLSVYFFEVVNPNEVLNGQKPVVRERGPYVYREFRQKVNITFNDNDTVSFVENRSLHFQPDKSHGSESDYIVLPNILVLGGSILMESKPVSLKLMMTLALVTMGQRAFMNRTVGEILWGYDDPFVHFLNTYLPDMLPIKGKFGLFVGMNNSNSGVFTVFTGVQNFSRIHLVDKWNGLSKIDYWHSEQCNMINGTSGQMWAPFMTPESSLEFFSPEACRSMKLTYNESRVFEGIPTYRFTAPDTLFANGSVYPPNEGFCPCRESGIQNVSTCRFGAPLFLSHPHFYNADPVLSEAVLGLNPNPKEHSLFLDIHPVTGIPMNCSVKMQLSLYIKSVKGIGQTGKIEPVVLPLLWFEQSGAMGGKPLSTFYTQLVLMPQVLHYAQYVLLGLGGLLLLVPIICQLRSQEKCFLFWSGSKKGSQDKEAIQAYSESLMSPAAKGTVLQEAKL

COc1c(NC(=O)C(=O)c2ccc(OCCN3CCOCC3)c3ccccc23)cc(C(C)(C)C)cc1NS(C)(=O)=O [ITX-5061]
IC50: 940 nM
